According to the supplement of paper PMC10307832:

Assays:
Experiment in all cases: relative viability (nuclei count vs DMSO), 5 days (fraction); higher = more cells survive
[1] = compound: CCOC1=CC=CC=C1N=NC2=C(NN(C2=O)C3=NC(=CS3)C4=CC=CC=C4)C [BAM7] + C[C@@H](Oc1cc(-c2cnn(C3CCNCC3)c2)cnc1N)c1c(Cl)ccc(F)c1Cl [Crizotinib] (partner 1 µM)
How it was run: (§1)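 Lung cancer cell lines were pin-tool dosed in 1536-well plates on the day after seeding, with either a lone drug or a fixed anchor-drug dose plus five library-drug doses (not always all listed) in √10 steps. Nuclei were counted on 4× images after 5 days. Relative viability is the ratio of treated-well to vehicle-well nuclei counts, with each value a median of duplicate plates.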

[2] = compound: CCn1c(-c2nonc2N)nc2c(C#CC(C)(C)O)ncc(OC[C@H]3CCCNC3)c21 + Nc1nc2[nH]cc(CCc3ccc(C(=O)N[C@@H](CCC(=O)O)C(=O)O)cc3)c2c(=O)[nH]1 [Pemetrexed] (partner 0.2 µM)
How it was run: as §1

[3] = compound: CCn1c(-c2nonc2N)nc2c(C#CC(C)(C)O)ncc(OC[C@H]3CCCNC3)c21 + CC(C)C[C@H](NC(=O)[C@H](Cc1ccccc1)NC(=O)c1cnccn1)B(O)O [Bortezomib] (partner 0.002 µM)
How it was run: as §1

[4] = compound: CCOC1=CC=CC=C1N=NC2=C(NN(C2=O)C3=NC(=CS3)C4=CC=CC=C4)C [BAM7] + CC(=O)Nc1cccc(-n2c(=O)n(C3CC3)c(=O)c3c(Nc4ccc(I)cc4F)n(C)c(=O)c(C)c32)c1 [Trametinib] (partner 0.02 µM)
How it was run: as §1

UMC-11 showed a relative viability ([1]; first compound 0.5 µM) of 0.661, a relative viability ([1]; first compound 5 µM) of 0.786 and a relative viability ([1]; first compound 15.81 µM) of 0.624. It also gave a relative viability ([1]; first compound 50 µM) of 0.636, a relative viability ([2]; first compound 0.01 µM) of 0.804 and a relative viability ([2]; first compound 0.03162 µM) of 0.758. It also gave a relative viability ([2]; first compound 0.1 µM) of 0.749, a relative viability ([2]; first compound 0.3162 µM) of 0.722 and a relative viability ([2]; first compound 1 µM) of 0.758. The relative viability ([3]; first compound 0.01 µM) was 0.676, the relative viability ([3]; first compound 0.03162 µM) was 0.905 and the relative viability ([3]; first compound 0.1 µM) was 0.833. The relative viability ([3]; first compound 0.3162 µM) was 0.48, the relative viability ([3]; first compound 1 µM) was 0.661 and the relative viability ([4]; first compound 0.5 µM) was 0.694. For the same cell line, the relative viability ([4]; first compound 5 µM) was 0.83, the relative viability ([4]; first compound 15.81 µM) was 0.728 and the relative viability ([4]; first compound 50 µM) was 0.71.
